“Also recorded” adds a separate entry of the source.
System: mouse FAT mRNA
Test: FAT mRNA expression in whole brain of mice treated with lithium or valproate, quantitative real-time PCR
Settings: C57B16 mice, intraperitoneal once daily for 7 days (lithium 340 mg/kg/day; valproate 350 mg/kg/day)

CCCC(CCC)C(=O)O [valproate, 2-propylpentanoic acid]
effect on relative FAT mRNA expression level (relative to GAPDH mRNA): appear to reduce; also recorded: appears to be reduced

— US20070202502A1, “Assay For Bipolar Affective Disorder” (priority 2004, published 2007)
